According to article PMC7747594, “Protease-activated receptor-2 ligands reveal orthosteric and allosteric mechanisms of receptor inhibition” (Communications Biology, 2020):

Experiments:
hPAR2 [1] = biological target: T1, hPAR2 (Homo sapiens, UniProt P55085); test: Radiolabelled competition binding assay against [^3H]-GB110 on HEKexpi293F membranes; parameters: expressed in transfected cells
T1 sequence (P55085 26-397): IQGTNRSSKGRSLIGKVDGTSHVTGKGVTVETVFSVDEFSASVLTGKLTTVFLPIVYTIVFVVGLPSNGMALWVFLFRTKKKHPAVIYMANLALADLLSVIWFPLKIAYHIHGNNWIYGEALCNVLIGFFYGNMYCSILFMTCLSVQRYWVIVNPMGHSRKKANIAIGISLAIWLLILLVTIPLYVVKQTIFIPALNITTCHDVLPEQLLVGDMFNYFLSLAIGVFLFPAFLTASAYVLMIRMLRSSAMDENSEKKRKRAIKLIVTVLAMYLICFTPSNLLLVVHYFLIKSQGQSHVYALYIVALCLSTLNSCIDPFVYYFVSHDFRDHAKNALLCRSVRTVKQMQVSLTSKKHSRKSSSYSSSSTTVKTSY
Procedure: The reaction was then filtered through 0.5% PEI-coated filter plates using a BiomekFX. The filter plate was then dried for 1 h at 50 °C. Scintillation fluid was added to each well, before reading the plate in a Microbeta reader.
(§1) Binding data were analysed using the One site – Fit Ki model in GraphPad Prism 8 (GraphPad Software) to determine binding affinity. Pharmacology in vitro potency data was analysed with a 4-parameter logistic fit using the equation y = Bottom + (Top − Bottom)/[…] where y is the response, x is the 10-logarithm of the drug concentration, Bottom is no response and Top is full response in GraphPad Prism 8 or Genedata Screener (Genedata). pEC50 and pIC50 data are presented as mean ± standard error of the mean (s.e.m.) derived from the number of independent experiments stated. Schild slope analysis was calculated using Graphpad Prism 8 Gaddum/Schild EC50 global fitting (shared model parameters between all data sets) competitive model. The most rigorous method for quantifying agonist-antagonist interactions is to globally fit the Gaddum/Shild model to all agonist dose–response curves. Schild slope quantifies the shifts in agonist response in the presence of antagonist, a Schild slope of 1 indicates the antagonist is competitive and extra-sum-of-squares F-test (p < 0.05) was used to compare the calculated Schild slope against a hypothetical Schild slope of 1. […] The relative activity was calculated using (EmaxEC50’)/(Emax’EC50) with the Hill slope help constant at 1. EC50’ and Emax’ denote the EC50 and Emax in the absence of allosteric modulator, while EC50 and Emax denote those measured in the presence of allosteric modulator. When the Hill slope = 1, the relative activity plot approaches an asymptote corresponding to the estimate of the γ value.

hPAR2 [2] = biological target: T1, hPAR2; test: pERK1/2 HTRF assay, inhibition of SLIGRL-NH2 in U2OS-hPAR2 cells; type: cell-based
Procedure: Phosphorylation of ERK1/2 was measured in U2OS-hPAR2 cells using Phospho-ERK1/2 (Thr202/Tyr204) assay kit (64ERKPEH Cisbio) and the 2 plate manufacturer’s protocol with the following modifications. Cells were seeded in McCoy’s 5A media containing 10% FBS at 15,000 cells per well in 384-well plates and incubated overnight at 37 °C, 5% CO2. Antagonist compounds (30 µM–1 nM) were incubated with the cells for 30 min prior to the addition of agonist SLIGRL-NH2 (10 µM) at EC80 and further incubation for 5 min at 37 °C. The supernatant was removed from the wells and lysis buffer was added to the cells and incubated with shaking at room temperature for 30 min. The cell lysate was transferred into a small-volume 384-well plate containing detection antibodies and incubated for 4 h at room temperature in the dark. Plates were read for HTRF signal on PHERAstar (BMG LabTech). In addition, phosphorylation of ERK1/2 was measured in CHO-hPAR2 using AlphaLISA SureFire Ultra pERK1/2 (Thr202/Tyr204) (Perkin Elmer). Cells were seeded at a density of 2000 cells per well in a 384-well proxiplate and incubated overnight. […] After incubation, cell lysis buffer was added with shaking for 30 min. Antibodies and beads were added and incubated for 4 h at room temperature. AlphaLISA signal was measured using a PHERAstar (BMG LabTech).
as §1, with “The most rigorous method for quantifying agonist-antagonist interactions is to globally fit the Gaddum/Shild model to all agonist dose–response curves.” left out

hPAR2 [3] = biological target: T1, hPAR2; test: β-arrestin-2 recruitment assay, inhibition of SLIGRL-NH2 in U2OS-hPAR2 cells; type: cell-based
Procedure: β‐Arrestin-2 recruitment was measured in U2OS-hPAR2 cells using the DiscoverX assay kit, according to the manufacturer’s instructions. Briefly, cells were seeded in McCoy’s 5A media containing 10% FBS at 4000 cells per well in 384-well plates and incubated overnight at 37 °C, 5% CO2. Antagonist compounds (30 µM–1 nM) were incubated with the cells for 30 min prior to the addition of agonist SLIGRL-NH2 (10 µM) at EC80 and further incubation for 90 min at 37 °C. Working detection solution (12 µl) was then added to each well, incubated at room temperature in the dark for 60 min and the chemiluminescence signal read on the EnVision microplate reader (Perkin Elmer).
as §1, with “The most rigorous method for quantifying agonist-antagonist interactions is to globally fit the Gaddum/Shild model to all agonist dose–response curves.” left out

hPAR2 [4] = biological target: T1, hPAR2; test: Europium-tagged competition binding assay against Eu-tagged-2f-LIGRLO(dtpa)-NH2 on CHO-hPAR2 cells; parameters: expressed in transfected cells; host or cells: Flp-In CHO
Procedure: CHO-hPAR2 cells were seeded overnight in 384-well plate at 2.5 × 10^4 cells/well and blocked with 2% BSA for 60 min. […] Cells were washed 3× with PBS supplemented with 20 µM EDTA, 0.01% Tween and 0.2% BSA followed by addition of DELFIA Enhancement Solution (Perkin Elmer) for 90 min. Time-resolved fluorescence was measured with PHERAstar FS reader (BMG Labtech).
as §1, with “The most rigorous method for quantifying agonist-antagonist interactions is to globally fit the Gaddum/Shild model to all agonist dose–response curves.” left out

[5] = SLIGRL-NH2, U2OS-hPAR2, mean ± s.e.m., read-out: pERK1/2 (hPAR2) pIC50 (converted)
[6] = SLIGRL-NH2, U2OS-hPAR2, mean ± s.e.m., read-out: β-arrestin (hPAR2) pIC50 (converted)
[7] = against Eu-tagged-2f-LIGRLO(dtpa)-NH2, CHO-hPAR2 cells, mean ± s.e.m., read-out: Competition Binding (hPAR2) pKi (converted)
[8] = earlier manuscript version quoted by reviewer, read-out: Ki

CNC(=O)[C@H]1CC[C@@H](NC(=O)[C@H](CC2CCCCC2)NC(=O)c2cn(Cc3ccccc3)nn2)c2ccccc21 [AZ2429]
remaining binding at 100 µM (hPAR2 [1]; 2 h, log [compound],M -4, individual data points, read-out: specific binding of [^3H]-GB110, Fig 2b source data): 19.6% | remaining binding at 33.3 µM (hPAR2 [1]; 2 h, log [compound],M -4.47756, individual data points, read-out: specific binding of [^3H]-GB110, Fig 2b source data): 10.5% | remaining binding at 3.7 µM (hPAR2 [1]; 2 h, log [compound],M -5.4318, individual data points, read-out: specific binding of [^3H]-GB110, Fig 2b source data): 11.5% | remaining binding at […] (hPAR2 [1]; 2 h, log [compound],M -5.91009, individual data points, read-out: specific binding of [^3H]-GB110, Fig 2b source data): 15.9% | remaining binding at 0.0152 µM (hPAR2 [1]; 2 h, log [compound],M -7.81816, individual data points, read-out: specific binding of [^3H]-GB110, Fig 2b source data): 88% | remaining binding at 0.00508 µM (hPAR2 [1]; 2 h, log [compound],M -8.29414, individual data points, read-out: specific binding of [^3H]-GB110, Fig 2b source data): 97.4% | remaining binding at 0.00169 µM (hPAR2 [1]; 2 h, log [compound],M -8.77211, individual data points, read-out: specific binding of [^3H]-GB110, Fig 2b source data): 99.3% | remaining binding at 0.000565 µM (hPAR2 [1]; 2 h, log [compound],M -9.24795, individual data points, read-out: specific binding of [^3H]-GB110, Fig 2b source data): 105% | Ki (hPAR2 [1]; [3H]-GB110, earlier manuscript version quoted by reviewer, read-out: Ki): 63 nM

C[C@@H](C1CCCCC1)n1c(-c2cc3c(cc2Br)OCO3)nc2cc(C(=O)Nc3ccncc3)ccc21 [AZ2623]
IC50 (hPAR2 [2]; [5]): 794 nM | IC50 (hPAR2 [3]; [6]): 490 nM | Ki (hPAR2 [4]; [7]): 79.4 nM

C[C@@H](C1CCCCC1)n1c(-c2cc3c(cc2Br)OCO3)nc2cc(C(=O)Nc3ccc(C#N)cc3)ccc21 [AZ3451]
IC50 (hPAR2 [2]; [5]): 363 nM | remaining activity at 0.37 µM (hPAR2 [2]; log[compound], M -6.4318, individual data points, read-out: SLIGRL-NH2 phosphorylation of ERK1/2, antagonist response, Fig 1e source data): 45.7% | IC50 (hPAR2 [3]; [6]): 87.1 nM | Ki (hPAR2 [1]; against [^3H]-GB110, HEKexpi293F membranes expressing hPAR2, mean ± s.e.m., read-out: Competition binding pKi (converted)): 12.6 nM | Kb (hPAR2 [4]; determined with Eu-tagged-2f-LIGRLO(dtpa)-NH2, read-out: equilibrium dissociation constant pKA / pKB (converted)): 126 nM | Ki (hPAR2 [4]; [8]): 120 nM

CCCc1cc(F)ccc1C(O)c1ncc[nH]1 (stereo not drawn) [AZ8838]
IC50 (hPAR2 [2]): 2000 nM | remaining activity at 3.33 µM (hPAR2 [2]; read-out: SLIGRL-NH2 phosphorylation of ERK1/2, antagonist response, Fig 1e source data, log[compound], M -5.47756, individual data points): 40.4% | IC50 (hPAR2 [3]): 794 nM | Ki (hPAR2 [1]): 398 nM | Ki (hPAR2 [4]; [7]): 6310 nM | Ki (hPAR2 [4]; [8]): 3600 nM
